Assay results from the supplement of paper PMC10307832.

What was measured:
Assay in all cases: relative viability (nuclei count vs DMSO), 5 days (fraction); higher = more cells survive
EPLC-272H = system: EPLC-272H
Outline: (§1)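 After 5 days of treatment, lung cancer cells in 1536-well plates were fixed and stained in a single step (final 0.05% Triton X-100, 1% formaldehyde, 1 ug/ml Hoechst) and their nuclei counted on 4× images. Treatment had been applied by pin tool the day after seeding as one drug alone or as a fixed anchor-drug dose with five library-drug doses (not always all listed) in √10 steps. Relative viability is the nuclei count of treated wells divided by that of vehicle wells, and values are medians of duplicate plates.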

NCI-H1651 = system: NCI-H1651
Outline: as §1

H3255 = system: H3255
Outline: as §1

ChaGo-K-1 = system: ChaGo-K-1
Outline: as §1

LU99A = system: LU99A
Outline: as §1

NCI-H2023 = system: NCI-H2023
Outline: as §1

EMC-BAC-2 = system: EMC-BAC-2
Outline: as §1

LCLC-103H = system: LCLC-103H
Outline: as §1

HCC-44 = system: HCC-44
Outline: as §1

NCI-H2085 = system: NCI-H2085
Outline: as §1

COR-L23 = system: COR-L23
Outline: as §1

NCI-H1563 = system: NCI-H1563
Outline: as §1

NCI-H1793 = system: NCI-H1793
Outline: as §1

NCI-H650 = system: NCI-H650
Outline: as §1

NCI-H520 = system: NCI-H520
Outline: as §1

NCI-H2405 = system: NCI-H2405
Outline: as §1

NCI-H1395 = system: NCI-H1395
Outline: as §1

HCC-827 = system: HCC-827
Outline: as §1

NCI-H838 = system: NCI-H838
Outline: as §1

NCI-H1944 = system: NCI-H1944
Outline: as §1

NCI-H2087 = system: NCI-H2087
Outline: as §1

SK-MES-1 = system: SK-MES-1
Outline: as §1

Q: `CCN(CC)CCCCNc1ncc2cc(-c3cc(OC)cc(OC)c3)c(NC(=O)NC(C)(C)C)nc2n1` + N=C(N)NC(=N)NCCc1ccccc1 [Phenformin] (partner 250 µM) was tested. Which relative viability (EPLC-272H; first compound 0.01 µM) did it give?
A: 0.324

Q: And the relative viability (EPLC-272H; first compound 0.03162 µM)?
A: 0.3

Q: What about the relative viability (EPLC-272H; first compound 0.1 µM) of the same compound?
A: 0.236

Q: What about the relative viability (EPLC-272H; first compound 0.3162 µM) of the same compound?
A: 0.296

Q: What about the relative viability (EPLC-272H; first compound 1 µM) of the same compound?
A: 0.288

Q: What about the relative viability (NCI-H1651; first compound 0.01 µM) of the same compound?
A: 0.305

Q: And the relative viability (NCI-H1651; first compound 0.03162 µM)?
A: 0.383

Q: And the relative viability (NCI-H1651; first compound 0.1 µM)?
A: 0.347

Q: What about the relative viability (NCI-H1651; first compound 0.3162 µM) of the same compound?
A: 0.316

Q: What about the relative viability (NCI-H1651; first compound 1 µM) of the same compound?
A: 0.257

Q: And the relative viability (H3255; first compound 0.01 µM)?
A: 0.347

Q: And the relative viability (H3255; first compound 0.03162 µM)?
A: 0.336

Q: What about the relative viability (H3255; first compound 0.1 µM) of the same compound?
A: 0.27

Q: What about the relative viability (H3255; first compound 0.3162 µM) of the same compound?
A: 0.408

Q: And the relative viability (H3255; first compound 1 µM)?
A: 0.356

Q: What about the relative viability (ChaGo-K-1; first compound 0.01 µM) of the same compound?
A: 0.541

Q: And the relative viability (ChaGo-K-1; first compound 0.03162 µM)?
A: 0.45

Q: What about the relative viability (ChaGo-K-1; first compound 0.1 µM) of the same compound?
A: 0.585

Q: What about the relative viability (ChaGo-K-1; first compound 0.3162 µM) of the same compound?
A: 0.47

Q: And the relative viability (ChaGo-K-1; first compound 1 µM)?
A: 0.474

Q: And the relative viability (LU99A; first compound 0.01 µM)?
A: 0.764

Q: And the relative viability (LU99A; first compound 0.03162 µM)?
A: 0.841

Q: What about the relative viability (LU99A; first compound 0.1 µM) of the same compound?
A: 1.04

Q: And the relative viability (LU99A; first compound 0.3162 µM)?
A: 0.772

Q: What about the relative viability (LU99A; first compound 1 µM) of the same compound?
A: 0.756

Q: And the relative viability (NCI-H2023; first compound 0.01 µM)?
A: 0.415

Q: And the relative viability (NCI-H2023; first compound 0.03162 µM)?
A: 0.43

Q: What about the relative viability (NCI-H2023; first compound 0.1 µM) of the same compound?
A: 0.5

Q: And the relative viability (NCI-H2023; first compound 0.3162 µM)?
A: 0.432

Q: What about the relative viability (NCI-H2023; first compound 1 µM) of the same compound?
A: 0.4

Q: And the relative viability (EMC-BAC-2; first compound 0.01 µM)?
A: 0.525

Q: And the relative viability (EMC-BAC-2; first compound 0.03162 µM)?
A: 0.586

Q: And the relative viability (EMC-BAC-2; first compound 0.1 µM)?
A: 0.562

Q: And the relative viability (EMC-BAC-2; first compound 0.3162 µM)?
A: 0.592

Q: And the relative viability (EMC-BAC-2; first compound 1 µM)?
A: 0.418

Q: And the relative viability (LCLC-103H; first compound 0.01 µM)?
A: 0.34

Q: What about the relative viability (LCLC-103H; first compound 0.03162 µM) of the same compound?
A: 0.335

Q: What about the relative viability (LCLC-103H; first compound 0.1 µM) of the same compound?
A: 0.37

Q: What about the relative viability (LCLC-103H; first compound 0.3162 µM) of the same compound?
A: 0.357

Q: And the relative viability (LCLC-103H; first compound 1 µM)?
A: 0.293

Q: What about the relative viability (HCC-44; first compound 0.01 µM) of the same compound?
A: 0.189

Q: And the relative viability (HCC-44; first compound 0.03162 µM)?
A: 0.195

Q: And the relative viability (HCC-44; first compound 0.1 µM)?
A: 0.237

Q: And the relative viability (HCC-44; first compound 0.3162 µM)?
A: 0.234

Q: What about the relative viability (HCC-44; first compound 1 µM) of the same compound?
A: 0.22

Q: What about the relative viability (NCI-H2085; first compound 0.01 µM) of the same compound?
A: 0.735

Q: What about the relative viability (NCI-H2085; first compound 0.03162 µM) of the same compound?
A: 0.661

Q: And the relative viability (NCI-H2085; first compound 0.1 µM)?
A: 0.76

Q: What about the relative viability (NCI-H2085; first compound 0.3162 µM) of the same compound?
A: 0.808

Q: What about the relative viability (NCI-H2085; first compound 1 µM) of the same compound?
A: 0.779

Q: What about the relative viability (COR-L23; first compound 0.01 µM) of the same compound?
A: 0.433

Q: And the relative viability (COR-L23; first compound 0.03162 µM)?
A: 0.444

Q: And the relative viability (COR-L23; first compound 0.1 µM)?
A: 0.511

Q: What about the relative viability (COR-L23; first compound 0.3162 µM) of the same compound?
A: 0.517

Q: And the relative viability (COR-L23; first compound 1 µM)?
A: 0.362

Q: What about the relative viability (NCI-H1563; first compound 0.01 µM) of the same compound?
A: 0.662

Q: What about the relative viability (NCI-H1563; first compound 0.03162 µM) of the same compound?
A: 0.66

Q: And the relative viability (NCI-H1563; first compound 0.1 µM)?
A: 0.689

Q: What about the relative viability (NCI-H1563; first compound 0.3162 µM) of the same compound?
A: 0.582

Q: What about the relative viability (NCI-H1563; first compound 1 µM) of the same compound?
A: 0.549

Q: What about the relative viability (NCI-H1793; first compound 0.01 µM) of the same compound?
A: 0.416

Q: What about the relative viability (NCI-H1793; first compound 0.03162 µM) of the same compound?
A: 0.427

Q: And the relative viability (NCI-H1793; first compound 0.1 µM)?
A: 0.353

Q: What about the relative viability (NCI-H1793; first compound 0.3162 µM) of the same compound?
A: 0.341

Q: And the relative viability (NCI-H1793; first compound 1 µM)?
A: 0.335

Q: What about the relative viability (NCI-H650; first compound 0.01 µM) of the same compound?
A: 0.417

Q: And the relative viability (NCI-H650; first compound 0.03162 µM)?
A: 0.442

Q: And the relative viability (NCI-H650; first compound 0.1 µM)?
A: 0.449

Q: And the relative viability (NCI-H650; first compound 0.3162 µM)?
A: 0.47

Q: And the relative viability (NCI-H650; first compound 1 µM)?
A: 0.451

Q: And the relative viability (NCI-H520; first compound 0.01 µM)?
A: 0.453

Q: What about the relative viability (NCI-H520; first compound 0.03162 µM) of the same compound?
A: 0.519

Q: And the relative viability (NCI-H520; first compound 0.1 µM)?
A: 0.623

Q: And the relative viability (NCI-H520; first compound 0.3162 µM)?
A: 0.335

Q: What about the relative viability (NCI-H520; first compound 1 µM) of the same compound?
A: 0.191

Q: What about the relative viability (NCI-H2405; first compound 0.01 µM) of the same compound?
A: 0.38

Q: And the relative viability (NCI-H2405; first compound 0.03162 µM)?
A: 0.412

Q: And the relative viability (NCI-H2405; first compound 0.1 µM)?
A: 0.518

Q: What about the relative viability (NCI-H2405; first compound 0.3162 µM) of the same compound?
A: 0.427

Q: What about the relative viability (NCI-H2405; first compound 1 µM) of the same compound?
A: 0.315

Q: What about the relative viability (NCI-H1395; first compound 0.01 µM) of the same compound?
A: 0.426

Q: And the relative viability (NCI-H1395; first compound 0.03162 µM)?
A: 0.455

Q: What about the relative viability (NCI-H1395; first compound 0.1 µM) of the same compound?
A: 0.451

Q: What about the relative viability (NCI-H1395; first compound 0.3162 µM) of the same compound?
A: 0.431

Q: What about the relative viability (NCI-H1395; first compound 1 µM) of the same compound?
A: 0.397

Q: What about the relative viability (HCC-827; first compound 0.01 µM) of the same compound?
A: 0.437

Q: And the relative viability (HCC-827; first compound 0.03162 µM)?
A: 0.422

Q: And the relative viability (HCC-827; first compound 0.1 µM)?
A: 0.417

Q: What about the relative viability (HCC-827; first compound 0.3162 µM) of the same compound?
A: 0.467

Q: And the relative viability (HCC-827; first compound 1 µM)?
A: 0.426

Q: And the relative viability (NCI-H838; first compound 0.01 µM)?
A: 0.498

Q: What about the relative viability (NCI-H838; first compound 0.03162 µM) of the same compound?
A: 0.562

Q: What about the relative viability (NCI-H838; first compound 0.1 µM) of the same compound?
A: 0.597

Q: What about the relative viability (NCI-H838; first compound 0.3162 µM) of the same compound?
A: 0.538

Q: And the relative viability (NCI-H838; first compound 1 µM)?
A: 0.291

Q: What about the relative viability (NCI-H1944; first compound 0.01 µM) of the same compound?
A: 0.204

Q: What about the relative viability (NCI-H1944; first compound 0.03162 µM) of the same compound?
A: 0.195

Q: And the relative viability (NCI-H1944; first compound 0.1 µM)?
A: 0.194

Q: And the relative viability (NCI-H1944; first compound 0.3162 µM)?
A: 0.202

Q: And the relative viability (NCI-H1944; first compound 1 µM)?
A: 0.16

Q: What about the relative viability (NCI-H2087; first compound 0.01 µM) of the same compound?
A: 0.42

Q: What about the relative viability (NCI-H2087; first compound 0.03162 µM) of the same compound?
A: 0.537

Q: And the relative viability (NCI-H2087; first compound 0.1 µM)?
A: 0.536

Q: What about the relative viability (NCI-H2087; first compound 0.3162 µM) of the same compound?
A: 0.522

Q: What about the relative viability (NCI-H2087; first compound 1 µM) of the same compound?
A: 0.429

Q: And the relative viability (SK-MES-1; first compound 0.01 µM)?
A: 0.706

Q: And the relative viability (SK-MES-1; first compound 0.03162 µM)?
A: 0.673

Q: What about the relative viability (SK-MES-1; first compound 0.1 µM) of the same compound?
A: 0.637

Q: And the relative viability (SK-MES-1; first compound 0.3162 µM)?
A: 0.641

Q: And the relative viability (SK-MES-1; first compound 1 µM)?
A: 0.483
